Assay results from patent US7119095B2, “Pharmaceutically active compounds and methods of use thereof” (Dana Farber Cancer Institute, priority 2001, dated 2006).

How the values were obtained:
T. gondii DHFR [1] = target: T1, T. gondii DHFR (Toxoplasma gondii, UniProt Q07422); type: biochemical; settings: compounds 3a-k
T1 sequence (Q07422 1-610): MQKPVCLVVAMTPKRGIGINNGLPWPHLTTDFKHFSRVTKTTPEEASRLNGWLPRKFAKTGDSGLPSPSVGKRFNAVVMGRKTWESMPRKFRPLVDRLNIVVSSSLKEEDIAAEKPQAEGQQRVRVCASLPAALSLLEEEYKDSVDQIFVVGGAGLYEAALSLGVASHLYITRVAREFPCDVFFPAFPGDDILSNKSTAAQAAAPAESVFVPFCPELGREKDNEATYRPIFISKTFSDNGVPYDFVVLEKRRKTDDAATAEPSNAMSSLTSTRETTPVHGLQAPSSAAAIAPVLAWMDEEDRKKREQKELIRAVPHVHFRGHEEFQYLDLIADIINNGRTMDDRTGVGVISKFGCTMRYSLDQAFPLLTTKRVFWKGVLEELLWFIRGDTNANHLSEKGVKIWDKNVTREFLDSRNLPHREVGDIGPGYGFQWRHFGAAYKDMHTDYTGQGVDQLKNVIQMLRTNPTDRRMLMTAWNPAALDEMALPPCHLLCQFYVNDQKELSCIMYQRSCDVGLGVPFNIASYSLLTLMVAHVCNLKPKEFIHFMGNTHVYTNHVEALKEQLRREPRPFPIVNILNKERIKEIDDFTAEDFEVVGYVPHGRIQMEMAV

rat liver DHFR = target: T2, rat liver DHFR (Rattus norvegicus, UniProt Q920D2); assay: Inhibition of rat liver DHFR (literature assay); settings: read-out: IC50 (μM) Rat liver, compounds 3a-k
T2 sequence (Q920D2 1-187): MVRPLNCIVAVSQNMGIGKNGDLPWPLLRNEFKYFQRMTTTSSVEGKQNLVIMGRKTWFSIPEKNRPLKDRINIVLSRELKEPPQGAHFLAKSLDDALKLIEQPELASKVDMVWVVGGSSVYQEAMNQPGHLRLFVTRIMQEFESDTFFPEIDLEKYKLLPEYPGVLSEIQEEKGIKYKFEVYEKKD

M. avium DHFR = target: T3, M. avium DHFR (Mycobacterium avium, UniProt O30463); assay: Inhibition of M. avium DHFR (literature assay); type: biochemical; settings: compounds 3a-k
T3 sequence (O30463 1-181): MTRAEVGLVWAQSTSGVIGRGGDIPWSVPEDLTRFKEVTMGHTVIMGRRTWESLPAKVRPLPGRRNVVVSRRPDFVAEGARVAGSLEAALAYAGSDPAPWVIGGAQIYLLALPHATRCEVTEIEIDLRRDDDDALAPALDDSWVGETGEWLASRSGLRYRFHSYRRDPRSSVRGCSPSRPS

T. gondii DHFR [2] = target: T1, T. gondii DHFR; settings: reported in the literature; cited from earlier work
E. coli DHFR = E. coli DHFR (Escherichia coli, UniProt P0ABQ4); settings: Kuyper et al., J. Med. Chem. 1985; cited from earlier work

| Compound | IC50 (T. gondii DHFR [1]) | IC50 (rat liver DHFR) | IC50 (M. avium DHFR) | selectivity T. gondii versus rat liver DHFR (T. gondii DHFR [2]) | Ki E. coli DHFR (E. coli DHFR) |
| --- | --- | --- | --- | --- | --- |
| COc1ccc(OCCCCCCCCC(=O)O)cc1Cc1cnc(N)nc1N [Compound 3k] | 0.43 µM | 12 µM | – | – | – |
| COc1ccc(OCCCCCC(=O)O)cc1Cc1cnc(N)nc1N [Compound 3h] | 0.48 µM | 17 µM | 0.15 µM | – | – |
| CCCCCOc1ccc(OC)c(Cc2cnc(N)nc2N)c1 [Compound 3a, 2,4-Diamino-5-(2-methoxy-5-pentyloxybenzyl)pyrimidine] | 6.5 µM | 44 µM | 0.31 µM | – | – |
| COc1ccc(OCCCCCCC(=O)O)cc1Cc1cnc(N)nc1N [Compound 3i] | – | 12 µM | 0.19 µM | – | – |
| CCOc1cc(Cc2cnc(N)nc2N)cc(OCC)c1-n1cccc1 [Compound 19, epiroprim] | – | – | – | 155 | – |
| CCCCCCCCCOc1ccc(OC)c(Cc2cnc(N)nc2N)c1 [Compound 3e, 2,4-Diamino-5-(2-methoxy-5-nonyloxybenzyl)pyrimidine] | 32 µM | 86 µM | 32 µM | – | – |
| CCCCCCCOc1ccc(OC)c(Cc2cnc(N)nc2N)c1 [Compound 3c, 2,4-Diamino-5-(2-methoxy-5-heptyloxybenzyl)pyrimidine] | 5 µM | 11 µM | 0.89 µM | – | – |
| CCCCCCCCOc1ccc(OC)c(Cc2cnc(N)nc2N)c1 [Compound 3d, 2,4-Diamino-5-(2-methoxy-5-octyloxybenzyl)pyrimidine] | 15 µM | 30 µM | – | – | – |
| COc1ccc(OCCCCCCCC(=O)O)cc1Cc1cnc(N)nc1N [Compound 3j] | 0.36 µM | 12 µM | 0.13 µM | – | – |
| COc1ccc(OCCCC(=O)O)cc1Cc1cnc(N)nc1N [Compound 3f] | 0.18 µM | 2.6 µM | 0.0048 µM | – | – |
| COc1cc(Cc2cnc(N)nc2N)cc(OCCCCCC(=O)O)c1OC [Compound 18] | – | – | – | – | highest affinity |
| CCCCCCOc1ccc(OC)c(Cc2cnc(N)nc2N)c1 [Compound 3b, 2,4-Diamino-5-(2-methoxy-5-hexyloxybenzyl)pyrimidine] | 9.2 µM | 29 µM | 0.39 µM | – | – |
